Measurements published in article PMC7663272, “Discovery of Tricyclic Pyranochromenone as Novel Bruton’s Tyrosine Kinase Inhibitors with In Vivo Antirheumatic Activity” (International Journal of Molecular Sciences, 2020).

Legend:
[1] = target: T1, TEC (Homo sapiens, UniProt P42680); test: HotSpot kinase enzymatic assay, TEC; format: biochemical
T1 construct: purchased Reaction Biology Corporation
T1 sequence (P42680 1-631): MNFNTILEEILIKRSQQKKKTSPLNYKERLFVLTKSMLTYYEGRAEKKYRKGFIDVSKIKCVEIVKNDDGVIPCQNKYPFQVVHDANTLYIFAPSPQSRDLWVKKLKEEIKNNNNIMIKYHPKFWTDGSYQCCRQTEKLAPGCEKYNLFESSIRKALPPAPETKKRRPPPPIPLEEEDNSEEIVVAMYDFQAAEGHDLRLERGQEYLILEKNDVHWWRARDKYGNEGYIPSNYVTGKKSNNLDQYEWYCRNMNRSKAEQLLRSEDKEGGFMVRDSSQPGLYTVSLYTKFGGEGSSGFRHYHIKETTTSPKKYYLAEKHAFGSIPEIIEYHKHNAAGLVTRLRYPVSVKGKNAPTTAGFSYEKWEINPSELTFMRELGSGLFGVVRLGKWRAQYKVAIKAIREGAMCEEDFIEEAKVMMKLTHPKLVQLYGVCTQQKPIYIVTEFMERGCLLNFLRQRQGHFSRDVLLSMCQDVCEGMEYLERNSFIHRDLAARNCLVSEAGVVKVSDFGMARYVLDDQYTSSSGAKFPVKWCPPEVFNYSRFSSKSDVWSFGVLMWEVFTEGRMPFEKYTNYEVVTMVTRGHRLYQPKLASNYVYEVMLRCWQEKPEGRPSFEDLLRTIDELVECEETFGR
Procedure: (§1) Therefore, efforts have focused on developing new compounds with good selectivity profiles. […] Compound 8 was selective against BTK. The biochemical activities of compound 8 differed among TEC family kinases. […] The inhibitory potential of compound 8 differed between members of the EGFR family. […] The inhibitory activity of compound 8 against JAK3 was also low.
(§2) Kinase enzymatic assays for BTK, BMX, TXK, TEC, ITK, EGFR, ERBB2, ERBB4, and JAK3 were performed at Reaction Biology Corporation (www.reactionbiology.com, Malvern, PA, USA) using the HotSpot assay platform. Briefly, specific kinase/substrate pairs and the required cofactors were prepared in a reaction buffer comprising 20 mM HEPES (pH 7.5), 10 mM MgCl2, 1 mM EGTA, 0.02% Brij35, 0.02 mg/mL BSA, 0.1 mM Na3VO4, 2 mM DTT, and 1% DMSO. The compounds were added to the reaction mixture and allowed to incubate. Approximately 20 min later, a mixture of ATP (Sigma-Aldrich, St. Louis, MO, USA) and ^33P ATP (PerkinElmer, Waltham, MA, USA) was added to the reaction mixture at a final concentration of 10 μM. The reactions were performed at room temperature for 120 min; subsequently, the reactions were spotted onto P81 ion exchange filter papers (Whatman Inc., Maidstone, UK). Any unbound phosphate was removed by thoroughly washing the filter papers with 0.75% phosphoric acid. […]

[2] = target: T2, ERBB2 (Homo sapiens, UniProt P04626); test: HotSpot kinase enzymatic assay, ERBB2; format: biochemical; conditions: mean of two experiments
T2 construct: purchased Reaction Biology Corporation
T2 sequence (P04626 23-1255): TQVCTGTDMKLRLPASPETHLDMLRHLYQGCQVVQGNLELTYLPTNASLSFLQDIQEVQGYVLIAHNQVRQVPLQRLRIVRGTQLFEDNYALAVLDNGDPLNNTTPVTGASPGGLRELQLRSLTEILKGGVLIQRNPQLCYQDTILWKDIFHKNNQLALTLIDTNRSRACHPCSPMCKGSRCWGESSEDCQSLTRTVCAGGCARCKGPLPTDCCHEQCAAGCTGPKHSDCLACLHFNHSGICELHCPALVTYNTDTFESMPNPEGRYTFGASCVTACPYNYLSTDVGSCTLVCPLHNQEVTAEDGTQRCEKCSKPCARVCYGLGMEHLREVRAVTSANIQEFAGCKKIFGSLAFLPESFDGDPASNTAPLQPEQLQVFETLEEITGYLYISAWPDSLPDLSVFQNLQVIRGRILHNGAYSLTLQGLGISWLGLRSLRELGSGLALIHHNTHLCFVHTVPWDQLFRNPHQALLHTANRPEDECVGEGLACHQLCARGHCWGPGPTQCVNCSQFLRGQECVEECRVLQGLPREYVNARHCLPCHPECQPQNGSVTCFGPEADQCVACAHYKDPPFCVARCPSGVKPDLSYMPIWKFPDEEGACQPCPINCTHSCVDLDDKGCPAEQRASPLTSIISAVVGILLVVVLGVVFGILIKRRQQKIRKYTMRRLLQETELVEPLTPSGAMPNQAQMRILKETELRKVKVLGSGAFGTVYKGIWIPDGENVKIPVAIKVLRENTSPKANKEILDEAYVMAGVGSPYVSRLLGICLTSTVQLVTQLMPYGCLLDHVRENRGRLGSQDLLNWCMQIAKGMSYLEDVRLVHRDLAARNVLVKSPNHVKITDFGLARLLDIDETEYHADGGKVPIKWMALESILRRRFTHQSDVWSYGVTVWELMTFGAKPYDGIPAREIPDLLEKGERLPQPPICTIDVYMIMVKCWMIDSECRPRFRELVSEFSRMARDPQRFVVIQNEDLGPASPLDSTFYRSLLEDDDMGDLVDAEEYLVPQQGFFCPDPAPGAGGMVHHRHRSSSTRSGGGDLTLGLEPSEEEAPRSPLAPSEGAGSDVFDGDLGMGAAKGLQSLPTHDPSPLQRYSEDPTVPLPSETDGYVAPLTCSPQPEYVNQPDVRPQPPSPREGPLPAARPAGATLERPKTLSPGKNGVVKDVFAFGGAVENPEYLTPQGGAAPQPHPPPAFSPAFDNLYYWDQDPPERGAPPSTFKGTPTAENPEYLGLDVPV
Procedure: as §1, §2

[3] = target: T3, BTK-C481S (Homo sapiens, UniProt Q06187, C481S); test: HotSpot kinase enzymatic assay, mutant BTK; format: biochemical; conditions: vs negative control (DMSO), mean of two separate experiments
T3 construct: purchased Reaction Biology Corporation
T3 sequence (Q06187 whole entry C481S): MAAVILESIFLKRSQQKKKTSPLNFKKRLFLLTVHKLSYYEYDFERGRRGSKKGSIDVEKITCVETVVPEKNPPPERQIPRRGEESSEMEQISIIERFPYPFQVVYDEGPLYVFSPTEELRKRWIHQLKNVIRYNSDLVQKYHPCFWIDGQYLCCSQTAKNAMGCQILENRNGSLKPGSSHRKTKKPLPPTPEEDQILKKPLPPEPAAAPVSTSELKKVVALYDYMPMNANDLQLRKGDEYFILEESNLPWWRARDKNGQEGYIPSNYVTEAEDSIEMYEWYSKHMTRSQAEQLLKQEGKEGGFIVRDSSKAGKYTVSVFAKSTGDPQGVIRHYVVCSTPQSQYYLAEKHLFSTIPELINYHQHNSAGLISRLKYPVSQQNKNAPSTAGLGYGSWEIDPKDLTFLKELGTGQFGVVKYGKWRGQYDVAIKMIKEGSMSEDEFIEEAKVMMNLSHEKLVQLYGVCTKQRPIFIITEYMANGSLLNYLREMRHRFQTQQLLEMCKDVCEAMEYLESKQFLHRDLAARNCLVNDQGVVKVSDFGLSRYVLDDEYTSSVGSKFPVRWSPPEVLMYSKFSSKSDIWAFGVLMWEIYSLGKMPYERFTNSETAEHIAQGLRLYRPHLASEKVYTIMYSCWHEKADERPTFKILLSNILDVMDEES
Description: To confirm the role of the electrophilic warhead groups, the acryloyl group of compound 8 was replaced with methylacryloyl (11) and propionyl (12) groups, which are less electrophilic or lack an electrophilic feature. […] The significant difference in the inhibitory activity of compounds 8 and 12 could explain the critical role of the acryloyl moiety in potentiating the BTK inhibitory activity of compound 8. […] It was also confirmed by comparison of the inhibitory activity of the representative compounds (8–10) with electrophilic warheads against wild-type BTK (BTK-wt) and mutant BTK (BTK-C481S).
Kinase enzymatic assays for BTK, BMX, TXK, TEC, ITK, EGFR, ERBB2, ERBB4, and JAK3 were performed at Reaction Biology Corporation (www.reactionbiology.com, Malvern, PA, USA) using the HotSpot assay platform. Briefly, specific kinase/substrate pairs and the required cofactors were prepared in a reaction buffer comprising 20 mM HEPES (pH 7.5), 10 mM MgCl2, 1 mM EGTA, 0.02% Brij35, 0.02 mg/mL BSA, 0.1 mM Na3VO4, 2 mM DTT, and 1% DMSO. The compounds were added to the reaction mixture and allowed to incubate. Approximately 20 min later, a mixture of ATP (Sigma-Aldrich, St. Louis, MO, USA) and ^33P ATP (PerkinElmer, Waltham, MA, USA) was added to the reaction mixture at a final concentration of 10 μM. The reactions were performed at room temperature for 120 min; subsequently, the reactions were spotted onto P81 ion exchange filter papers (Whatman Inc., Maidstone, UK). Any unbound phosphate was removed by thoroughly washing the filter papers with 0.75% phosphoric acid. […] GraphPad Prism software was used to obtain the IC50 values and perform curve fitting.

[4] = GIT-PAMPA in vitro permeability assay; format: in vitro ADME
Procedure: GIT-PAMPA was performed according to the manufacturer’s instructions (Pion Inc., Billerica, MA, USA). Briefly, the test compound was diluted in donor buffer (pH 7.4) to obtain a concentration of 50 μM. Then, 200 μL of this solution was added to the lower part of a 96-well PAMPA sandwich plate. The transmembrane side of the donor part was coated with a GIT-0 lipid solution, and 200 μL of the acceptor buffer was added to the upper part of the PAMPA sandwich plate. After incubating for 4 h at 25 °C, each sample was transferred to a fresh UV plate, after which the UV spectra were measured at wavelengths of 250–498 nm, and the permeability rate (Pe, 10^−6 cm/sec) was analyzed using the Pion PAMPA Explorer software (version 3.8, Pion Inc., Billerica, MA, USA).

[5] = target: T4, EGFR (Homo sapiens, UniProt P00533); test: HotSpot kinase enzymatic assay, EGFR; format: biochemical
T4 construct: purchased Reaction Biology Corporation
T4 sequence (P00533 25-1210): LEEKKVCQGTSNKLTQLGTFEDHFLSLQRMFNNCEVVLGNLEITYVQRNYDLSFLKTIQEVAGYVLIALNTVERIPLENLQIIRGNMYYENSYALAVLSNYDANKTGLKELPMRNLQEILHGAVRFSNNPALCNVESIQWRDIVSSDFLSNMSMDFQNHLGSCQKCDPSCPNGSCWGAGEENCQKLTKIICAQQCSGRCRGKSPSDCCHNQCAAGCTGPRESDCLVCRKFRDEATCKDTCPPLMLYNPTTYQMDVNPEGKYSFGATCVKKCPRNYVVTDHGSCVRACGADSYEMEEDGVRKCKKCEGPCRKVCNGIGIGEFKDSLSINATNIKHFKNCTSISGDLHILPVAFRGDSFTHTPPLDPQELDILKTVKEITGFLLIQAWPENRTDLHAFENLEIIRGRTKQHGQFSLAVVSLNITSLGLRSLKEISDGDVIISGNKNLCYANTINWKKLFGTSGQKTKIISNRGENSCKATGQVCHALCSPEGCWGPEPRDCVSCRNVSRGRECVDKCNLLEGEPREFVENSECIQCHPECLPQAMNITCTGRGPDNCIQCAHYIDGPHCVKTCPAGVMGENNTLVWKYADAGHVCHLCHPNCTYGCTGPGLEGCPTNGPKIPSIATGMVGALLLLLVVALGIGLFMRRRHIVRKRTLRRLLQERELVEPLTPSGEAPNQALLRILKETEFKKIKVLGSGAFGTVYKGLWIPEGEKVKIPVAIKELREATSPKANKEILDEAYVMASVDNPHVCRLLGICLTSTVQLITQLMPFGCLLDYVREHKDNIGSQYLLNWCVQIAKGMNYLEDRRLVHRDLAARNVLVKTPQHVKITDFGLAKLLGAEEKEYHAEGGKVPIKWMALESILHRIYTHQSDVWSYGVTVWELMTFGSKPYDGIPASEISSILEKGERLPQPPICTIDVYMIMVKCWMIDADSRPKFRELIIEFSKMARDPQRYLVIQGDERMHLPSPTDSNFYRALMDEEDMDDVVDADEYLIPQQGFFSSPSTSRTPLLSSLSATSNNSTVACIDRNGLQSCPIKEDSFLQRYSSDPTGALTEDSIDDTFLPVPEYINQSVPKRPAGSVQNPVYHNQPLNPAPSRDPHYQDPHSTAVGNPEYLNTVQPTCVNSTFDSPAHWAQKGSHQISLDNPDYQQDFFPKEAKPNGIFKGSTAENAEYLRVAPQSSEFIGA
Procedure: as §1, §2

[6] = target: T5, CYP2C9 (Homo sapiens, UniProt P11712); test: P450-Glo CYP inhibition assay, CYP2C9; format: in vitro ADME
T5 construct: purchased Promega V9790
T5 sequence (P11712 whole entry): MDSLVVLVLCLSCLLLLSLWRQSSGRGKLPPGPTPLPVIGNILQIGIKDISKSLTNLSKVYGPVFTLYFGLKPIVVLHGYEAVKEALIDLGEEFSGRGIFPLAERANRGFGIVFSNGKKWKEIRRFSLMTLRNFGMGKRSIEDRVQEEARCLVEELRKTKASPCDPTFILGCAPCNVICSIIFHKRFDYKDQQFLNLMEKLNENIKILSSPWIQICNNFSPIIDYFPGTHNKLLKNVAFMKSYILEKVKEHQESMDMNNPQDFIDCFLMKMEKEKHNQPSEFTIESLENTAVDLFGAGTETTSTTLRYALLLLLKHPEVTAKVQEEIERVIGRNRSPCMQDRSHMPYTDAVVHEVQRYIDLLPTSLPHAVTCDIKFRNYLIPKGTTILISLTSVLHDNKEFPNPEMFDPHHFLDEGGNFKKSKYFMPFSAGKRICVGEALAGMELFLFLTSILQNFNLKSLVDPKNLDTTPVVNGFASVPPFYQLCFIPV
Procedure: The potential for CYP450 inhibition (CYP1A2, 2C9, 2C19, 2D6, and […]) was assessed using Promega P450-Glo^TM CYP450 assay systems. Luciferin-ME served as the substrate for CYP1A2, and the inhibitor α-naphthoflavone was used as a positive control. Luciferin-H was used as the substrate for CYP2C9, and the inhibitor sulfaphenazole was used as a positive control. Luciferin-H EGE was selected as the substrate for CYP2C19, whereas the inhibitor amitriptyline served as a positive control. Luciferin-ME EGE was used as the substrate for CYP2D6, whereas the inhibitor quinidine served as a positive control. Luciferin-BE was used as the substrate for CYP3A4, whereas the inhibitor ketoconazole was used as a positive control. The assays were performed using the excitation and emission wavelengths recommended by the manufacturer. Briefly, a CYP enzyme and a P450-Glo™ substrate were combined in potassium phosphate (0.1 M KPO4) buffer, with or without a test compound of interest, and […]. The reaction was initiated by adding two volumes of 2 times concentrated NADPH regeneration system. […] Luminescence was subsequently measured using a Tecan Infinite M1000 PRO microplate reader (Tecan Group Ltd., Switzerland). The percent inhibition was calculated relative to that of the positive control at a fixed concentration. […]

Compound: C=CC(=O)O[C@H]1Cc2cc3ccc(=O)oc3cc2OC1(C)C [Compound 8, (7S)-(+)-Acrylic acid, 8,8-dimethyl-2-oxo-6,7-dihydro-2H,8H-pyrano [3,2-g]chromen-7-yl ester]
- inhibitory activity against TEC (in words) [1]: moderate activity
- inhibition at 10 µM ([1]; 10 µM, mean of two experiments): 54.5%
- inhibition at 10 µM [2]: 59.2%
- inhibition at 10 µM [3]: 9.7%
- permeability (in words) [4]: excellent
- inhibitory activity against EGFR (in words) [5]: weak inhibitory activity
- inhibition at 10 µM ([5]; 10 µM, mean of two experiments): 32.9%
- CYP2C9 inhibition (in words) [6]: moderately inhibited
- CYP inhibition 2C9 ([6]; % inhibition of human CYP isozymes at 10 μM): 66.1%
